In PubChem BioAssay AID1259411 (Chemical Carcinogenesis Research Information System (CCRIS), 2018):
Active and inactive are the calls of the source. The rule behind the calls is not given here.

System: rodent carcinogenicity bioassays, tumor incidence
Assay: CCRIS carcinogenicity studies
Outline: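 NCI-built, expert-reviewed records of carcinogenicity and related test outcomes (mutagenicity, tumor promotion/inhibition) compiled from published and report sources, historical span 1985-2011, not updated.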

CN(C)c1ccc2nc3ccc(=[N+](C)C)cc-3sc2c1
carcinogen call (Species: Mouse, Strain/Sex: B6C3F1/Female, Route: Oral, Dose: 0, 2.5, 12.5, 25 mg/kg 5 d per wk for 2 yr, Dose: 0, 2.5, 12.5, 25 mg/kg 5 d per wk for 2 yr, Tumor Site: Type of Lesion: Lymphatic system: Malignant lymphomas (6/50; 4/50; 9/50; 12/50) (Marginal increase)): equivocal | carcinogen call (Species: Mouse, Strain/Sex: B6C3F1/Male, Route: Oral, Dose: 0, 2.5, 12.5, 25 mg/kg 5 d per wk for 2 yr, Dose: 0, 2.5, 12.5, 25 mg/kg 5 d per wk for 2 yr, Tumor Site: Type of Lesion: Small intestine: Carcinomas (0/50; 1/50; 2/50; 4/50), Adenomas or carcinomas (1/50; 2/50; 4/50; 6/50) (incidences not st, Tumor Site: Type of Lesion: Small intestine: Carcinomas (0/50; 1/50; 2/50; 4/50), Adenomas or carcinomas (1/50; 2/50; 4/50; 6/50) (incidences not st): active; positive (for lymphoma only at high does) (ntp describes results as some evidenc | carcinogen call (Species: Rat, Strain/Sex: F344/Female, Route: Oral, Dose: 0, 5, 25, 50 mg/kg 5 d per wk for 2 yr, Dose: 0, 5, 25, 50 mg/kg 5 d per wk for 2 yr): inactive; negative | carcinogen call (Species: Rat, Strain/Sex: F344/Male, Route: Oral, Dose: 0, 5, 25, 50 mg/kg 5 d per wk for 2 yr, Dose: 0, 5, 25, 50 mg/kg 5 d per wk for 2 yr, Tumor Site: Type of Lesion: Pancreas: Pancreatic islet adenomas (4/50; 9/50; 12/50; 8/50), Pancreatic islet adenomas or carcinomas (4/50, 9/50, 14/5, Tumor Site: Type of Lesion: Pancreas: Pancreatic islet adenomas (4/50; 9/50; 12/50; 8/50), Pancreatic islet adenomas or carcinomas (4/50, 9/50, 14/5): active; positive (statistically significant only at 25 mg/kg dose) (ntp describes as som

CN(C)CCOC(c1ccccc1)c1ccccc1
carcinogen call (Species: MOUSE, Strain/Sex: B6C3F1/FEMALE, Route: ORAL, Dose: 0, 156, 313 PPM IN FEED FOR 103 WK (STUDY DURATION: 106 WK), Dose: 0, 156, 313 PPM IN FEED FOR 103 WK (STUDY DURATION: 106 WK)): inactive; negative | carcinogen call (Species: MOUSE, Strain/Sex: B6C3F1/MALE, Route: ORAL, Dose: 0, 156, 313 PPM IN FEED FOR 105 WK (STUDY DURATION: 106 WK), Dose: 0, 156, 313 PPM IN FEED FOR 105 WK (STUDY DURATION: 106 WK)): inactive; negative | carcinogen call (Species: RAT, Strain/Sex: F344/FEMALE, Route: ORAL, Dose: 0, 156, 313 PPM IN FEED FOR 103 WK (STUDY DURATION: 106 WK), Dose: 0, 156, 313 PPM IN FEED FOR 103 WK (STUDY DURATION: 106 WK), Tumor Site: Type of Lesion: PITUITARY GLAND: ADENOMA): equivocal | carcinogen call (Species: RAT, Strain/Sex: F344/FEMALE, Route: ORAL, Dose: 0, 2000 PPM IN DIET FOR 106 WK (STUDY DURATION: 130 WK)): inactive; negative | carcinogen call (Species: RAT, Strain/Sex: F344/MALE, Route: ORAL, Dose: 0, 313, 625 PPM IN FEED FOR 103 WK (STUDY DURATION: 106 WK), Dose: 0, 313, 625 PPM IN FEED FOR 103 WK (STUDY DURATION: 106 WK), Tumor Site: Type of Lesion: BRAIN: ASTROCYTOMA OR GLIOMA, LUNG: ALVEOLAR/BRONCHIOLAR ADENOMA OR CARCINOMA): equivocal | carcinogen call (Species: RAT, Strain/Sex: F344/MALE, Route: ORAL, Dose: 0, 2000 PPM IN DIET FOR 106 WK (STUDY DURATION: 130 WK)): inactive; negative

CCOP(=O)=O.CCOP(=O)=O.CCOP(=O)=O.[Al+3]
carcinogen call (Species: Mouse, Strain/Sex: CD-1/Female (60/Group), Route: Oral): inactive; negative | carcinogen call (Species: Mouse, Strain/Sex: CD-1/Male (60/Group), Route: Oral): inactive; negative | carcinogen call (Species: Rat, Strain/Sex: CD Sprague-Dawley/Male (80/Group), Route: Oral, Dose: 0, 88, 348, 1372 mg/kg/day in diet for 24 mo, study duration 24 mo, Dose: 0, 88, 348, 1372 mg/kg/day in diet for 24 mo, study duration 24 mo, Tumor Site: Type of Lesion: Adrenal medulla: pheochromocytoma (5/80, 7/79. 15/81, 16/81). Urinary bladder: Carcinoma and papilloma combined (1/78 in): active; positive. (department of pesticides regulation reviewer described as a possible | carcinogen call (Species: Rat, Strain/Sex: CD Sprague-Dawley/Male (80/Group), Route: Oral, Dose: 0, 117, 450, 1786 mg/kg/day in diet for 24 mo, study duration 24 mo, Dose: 0, 117, 450, 1786 mg/kg/day in diet for 24 mo, study duration 24 mo): inactive; negative

CC(C)C(C(=O)OC(C#N)c1cccc(Oc2ccccc2)c1)c1ccc(Cl)cc1 (stereo unspecified)
carcinogen call (Species: MOUSE, Strain/Sex: B6C3F1/FEMALE, Route: ORAL, Dose: 0, 10, 50, 250, 1250 PPM IN THE DIET FOR 2 YR (STUDY DURATION: 2 YR), Dose: 0, 10, 50, 250, 1250 PPM IN THE DIET FOR 2 YR (STUDY DURATION: 2 YR)): inactive; negative | carcinogen call (Species: MOUSE, Strain/Sex: B6C3F1/MALE, Route: ORAL, Dose: 0, 10, 50, 250, 1250 PPM IN THE DIET FOR 2 YR (STUDY DURATION: 2 YR), Dose: 0, 10, 50, 250, 1250 PPM IN THE DIET FOR 2 YR (STUDY DURATION: 2 YR)): inactive; negative | carcinogen call (Species: MOUSE, Strain/Sex: C57BL/FEMALE, Route: INTRAGASTRIC, Dose: 0, 40, 80 MG/KG IN ARACHIS OIL 5/WK FOR 104 WK (STUDY DURATION: 120 WK), Dose: 0, 40, 80 MG/KG IN ARACHIS OIL 5/WK FOR 104 WK (STUDY DURATION: 120 WK)): inactive; negative | carcinogen call (Species: MOUSE, Strain/Sex: C57BL/MALE, Route: INTRAGASTRIC, Dose: 0, 40, 80 MG/KG IN ARACHIS OIL 5/WK FOR 104 WK (STUDY DURATION: 120 WK), Dose: 0, 40, 80 MG/KG IN ARACHIS OIL 5/WK FOR 104 WK (STUDY DURATION: 120 WK)): inactive; negative | carcinogen call (Species: RAT, Strain/Sex: SPRAGUE-DAWLEY/MALE,FEMALE, Route: ORAL): inactive; negative | carcinogen call (Species: Rat, Strain/Sex: Sprague-Dawley/Male and female (93/Experimental group and 183/Control group), Route: Oral, Dose: 0, 1, 5, 25, 250 ppm in diet for 2 yr, study duration 2 yr, Dose: 0, 1, 5, 25, 250 ppm in diet for 2 yr, study duration 2 yr): inactive; negative

Cc1ccc(N=Nc2c(O)c(S(=O)(=O)O)cc3cc(S(=O)(=O)O)ccc23)c(C)c1
carcinogen call (Species: MOUSE, Route: ORAL, Tumor Site: Type of Lesion: LIVER): active; positive | carcinogen call (Species: RAT, Route: ORAL, Tumor Site: Type of Lesion: LIVER): active; positive

CCCCC(CC)COC(=O)CCCCC(=O)OCC(CC)CCCC (stereo unspecified)
carcinogen call (Species: MOUSE, Strain/Sex: B6C3F1/FEMALE, Route: ORAL, Dose: 0, 12000, 25000 PPM IN DIET FOR 102-104 WK (STUDY DURATION: 102-104 WK), Dose: 0, 12000, 25000 PPM IN DIET FOR 102-104 WK (STUDY DURATION: 102-104 WK), Tumor Site: Type of Lesion: LIVER: CARCINOMA, CARCINOMA OR ADENOMA): active; positive | carcinogen call (Species: MOUSE, Strain/Sex: B6C3F1/FEMALE, Route: ORAL, Dose: 0, 12000, 25000 PPM IN DIET FOR 103 WK (STUDY DURATION: 105-106 WK), Dose: 0, 12000, 25000 PPM IN DIET FOR 103 WK (STUDY DURATION: 105-106 WK), Tumor Site: Type of Lesion: LIVER: HEPATOCELLULAR CARCINOMA): active; positive | carcinogen call (Species: MOUSE, Strain/Sex: B6C3F1/MALE, Route: ORAL, Dose: 0, 12000, 25000 PPM IN DIET FOR 102-104 WK (STUDY DURATION: 102-104 WK), Dose: 0, 12000, 25000 PPM IN DIET FOR 102-104 WK (STUDY DURATION: 102-104 WK), Tumor Site: Type of Lesion: LIVER: CARCINOMA OR ADENOMA): active; positive | carcinogen call (Species: MOUSE, Strain/Sex: B6C3F1/MALE, Route: ORAL, Dose: 0, 12000, 25000 PPM IN DIET FOR 103 WK (STUDY DURATION: 104-106 WK), Dose: 0, 12000, 25000 PPM IN DIET FOR 103 WK (STUDY DURATION: 104-106 WK), Tumor Site: Type of Lesion: LIVER: HEPATOCELLULAR CARCINOMA, HEPATOCELLULAR ADENOMA OR CARCINOMA): active; positive | carcinogen call (Species: RAT, Strain/Sex: F344/FEMALE, Route: ORAL, Dose: 0, 12000, 25000 PPM IN DIET FOR 102-104 WK (STUDY DURATION: 102-104 WK), Dose: 0, 12000, 25000 PPM IN DIET FOR 102-104 WK (STUDY DURATION: 102-104 WK)): inactive; negative | carcinogen call (Species: RAT, Strain/Sex: F344/FEMALE, Route: ORAL, Dose: 0, 12000, 25000 PPM IN DIET FOR 103 WK (STUDY DURATION: 104-107 WK), Dose: 0, 12000, 25000 PPM IN DIET FOR 103 WK (STUDY DURATION: 104-107 WK)): inactive; negative | carcinogen call (Species: RAT, Strain/Sex: F344/MALE, Route: ORAL, Dose: 0, 12000, 25000 PPM IN DIET FOR 102-104 WK (STUDY DURATION: 102-104 WK), Dose: 0, 12000, 25000 PPM IN DIET FOR 102-104 WK (STUDY DURATION: 102-104 WK)): inactive; negative | carcinogen call (Species: RAT, Strain/Sex: F344/MALE, Route: ORAL, Dose: 0, 12000, 25000 PPM IN DIET FOR 103 WK (STUDY DURATION: 104-107 WK), Dose: 0, 12000, 25000 PPM IN DIET FOR 103 WK (STUDY DURATION: 104-107 WK)): inactive; negative

CC(=O)Nc1c(I)c(C(=O)N[C@@H](C=O)[C@@H](O)[C@H](O)[C@H](O)CO)c(I)c(N(C)C(C)=O)c1I
carcinogen call (Species: MOUSE, Strain/Sex: ICR/FEMALE, Route: INTRABRONCHIAL, Dose: 0, 75 µL ONCE ADMINISTERED TO WEANLING MICE (STUDY DURATION: LIFETIME), Tumor Site: Type of Lesion: LUNG: TUMOR): active; positive
